Laboratory results reported in article PMC9019904, “AD Informer Set: Chemical tools to facilitate Alzheimer's disease drug discovery” (Alzheimer's & Dementia : Translational Research & Clinical …, 2022).

Tests used:
[1] = system: BV2 (mouse microglia) cell line; assay: pHrodo-myelin phagocytosis/cell viability high content imaging assay: viability (cell count, nuclear area, nuclear intensity); settings: BV2 cells, 10 uM compound, 48 hours treatment
Description: (§1) All AD Informer Set compounds were tested in two immortalized microglial cell lines, murine (BV2), and human (HMC3), in a high‐content imaging assay in duplicate by the Chu lab. Experimental details and all data can be found as supporting information files.
(§2) The role of microglia in AD has been well documented and was thus chosen as a cell type in which to profile the AD Informer Set.[43], [44], [45] As an example, neuroinflammation, as detected by the presence of activated complement proteins, interleukins, cytokines, and chemokines in microglia and astrocytes, is increased early in AD and is considered pathogenic due to its chronic nature.[33], [34] Cytotoxic effects can be assessed by considering multiple parameters.
(§3) Microglial viability and phagocytosis studies: The pHrodo-myelin phagocytosis/cell viability assay, modified based on a published method, was run with immortalized BV2 (mouse microglia) and HMC3 (human microglia) cell lines in the Chu lab at IUSM. The 384-well plate high content analysis assay with BV2 and HMC3 microglial cell lines is used to quantify both phagocytosis and cell viability simultaneously. High content imaging is performed with the ArrayScan automatic imaging system and imaging analysis done with the software on the system. After allowing cells to adhere overnight, they are treated with compounds for total 48 hours including final 20 hours seeded with pHrodo-myelin (labeled phagocytosis ligand, purified […]
(§4) (approximately 22 hours after pHrodo-myelin addition). Three measurements are extracted from the assay: 1) phagocytosis signal by mean total phagocytosis spot intensity per cell, 2) total cell counts per well as the main measurement of cell viability, and 3) mean average nuclear intensity per cell as profiling of cell health since apoptotic cells showing nuclear intensity increase (early apoptosis) and decrease (later apoptosis), respectively. These measurements allow for evaluation of compound-induced phagocytosis (1) and cytotoxicity (2 and 3). Assays were carried out at a single concentration (10 μM). Idelalisib (10 μM) and cytochalasin-D (4 μM) were used as positive controls in the assay. All data, which was an average of 2 data points, was normalized to untreated wells and reported as % control, which is included in the Supporting Information both as a raw data file and summarized in the compound/gene-annotation file.

[2] = system: HMC3 (human microglia) cell line; assay: as above; settings: HMC3 cells, 10 uM compound, 48 hours treatment
Description: as §1, §2, §3, §4

[3] = system: BV2 (mouse microglia) cell line; assay: pHrodo-myelin phagocytosis/cell viability high content imaging assay: phagocytosis signal; format: cell-based; settings: BV2 cells, 10 uM compound, 48 hours treatment, pHrodo-myelin final 20 hours
Description: (§5) It is important to note that stressed cells, such as those that are dying, are prone to show an increase in phagocytosis. […] MerTK promotes phagocytosis and thus MerTK inhibition is proposed to lead to inhibition of phagocytosis.[47]
(§6) phagocytosis and cell viability simultaneously. High content imaging is performed with the
(§7) (approximately 22 hours after pHrodo-myelin addition). Three measurements are extracted
(§8) intensity increase (early apoptosis) and decrease (later apoptosis), respectively. These
and 3). […]

[4] = system: HMC3 (human microglia) cell line; assay: as above; format: cell-based; settings: HMC3 cells, 10 uM compound, 48 hours treatment, pHrodo-myelin final 20 hours
Description: as §5, §6, §7, §8
and 3). […]

SMILES | 1. Cell count (% control) [1] [% control] | 2. Nuclear Area (% Control) [1] [% Control] | 3. Nuclear DNA Intensity (% control) [1] [% control] | 1. Cell count (% control) [2] [% control] | 2. Nuclear Area (% Control) [2] [% Control] | 3. Nuclear DNA Intensity (% control) [2] [% control] | 4. Phagocytosis (% control) [3] [% control] | 4. Phagocytosis (% control) [4] [% control]
Cc1cc(C)nc(NC(=S)N2CCN(c3ccc(C(F)(F)F)cn3)CC2)c1 [UNC10302906A] | 93.3 | 107.2 | 105.6 | 134.6 | 95.0 | 106.3 | 184.1 | 109.8
C=C(c1ccc(C(=O)O)cc1)c1cc2c(cc1C)C(C)(C)CCC2(C)C [UNC10302949A] | 91.0 | 109.3 | 95.6 | 131.9 | 99.3 | 94.9 | 117.0 | 79.3
c1cn2cc(-c3ccc4cn[nH]c4c3)nc(Nc3ccc(N4CCOCC4)cc3)c2n1 [UNC10302678A] | 22.1 | 102.9 | 164.6 | 74.7 | 98.9 | 212.8 | 0.6 | 43.6
OC(c1cc(C23CC4CC(CC(C4)C2)C3)nc2c(Cl)cc(Cl)cc12)C1CCCCN1 (stereo not drawn) [UNC10302897A] | 63.8 | 105.3 | 99.1 | 110.1 | 94.7 | 100.9 | 122.3 | 67.0
Cc1cc(C)nc(NC(=S)N2CCN(Cc3ccc(C(F)(F)F)cc3)CC2)c1 [UNC10302844A] | 129.8 | 107.6 | 103.9 | 133.1 | 97.8 | 105.3 | 180.4 | 108.4
O=C1CCc2cc(OCCCCc3nnnn3C3CCCCC3)ccc2N1 [UNC10100278A] | 112.3 | 103.2 | 104.4 | 103.2 | 103.0 | 97.0 | 125.3 | 104.4
